Measured values reported in patent US8394762B2, “Self-decontaminating coatings containing antimicrobial peptides” (The United States of America, as represented by the …, priority 2010, dated 2013).

Assays:
[1] = tested on: Staphylococcus aureus (ATCC 25923); assay: MIC testing of peptides in solution, Gram-positive; assay type: cell-based; conditions: peptide in solution, LB media, 18 hr 37° C., 1×10^5 CFU
Excerpt: (§1) Bacteria and media: Bacterial strains were obtained from the American Type Culture Collection (ATCC, Manassas, Va.) Staphylococcus aureus (ATCC 25923) and Escherichia coli (ATCC 11229) were used for bacterial Gram-positive and Gram-negative challenges, respectively. Luria-Bertani (LB) media (Difco Laboratories, Detroit, Mich.), prepared as per the manufacturer's specifications, was used as a bacterial growth and dilution medium for preparation of bacteria for Gram-positive and Gram-negative challenges.
Peptides: Peptides Chr-1, Chr-3, Chr-1 Truncated, and Chr-3 Truncated were obtained from Biosynthesis, Inc. (Lewisville, Tex.). Peptides were synthesized then purified by HPLC, Peptides arrived lyophilized, and were resuspended in sterile H2O. For minimum inhibitory concentration (MIC) testing, this suspension was added to media as described below. […]
Bacterial challenge: MIC testing: To determine the minimum inhibitory concentration (MIC) of peptides, compounds were weighed and dissolved in sterile water. […] Log phase cells were harvested by centrifugation, counted on a hemocytometer using bright field microscopy, pelleted by centrifugation at 4000×g for 10 min, and resuspended in a 0.5% NaCl solution at a concentration of 1×10^7 cfu/mL. […] MIC was determined to be the lowest concentration of biocide that prevented visible bacterial growth at 18 hr.

Escherichia coli = assay: MIC testing of peptides in solution, Gram-negative; assay type: cell-based; conditions: peptide in solution, LB media, 18 hr 37° C., 1×10^5 CFU
[2] = tested on: Staphylococcus aureus (ATCC 25923); assay: Surface testing (log kill) of peptide-containing acrylic coatings, Gram-positive; assay type: cell-based; conditions: for Surface antimicrobial activity of coating (in words), Gram-positive / Gram Positive Sample 1 Log Kill / Gram Positive Sample 2 Log Kill / Gram Positive Sample 3 Log Kill / Gram Positive Average Log Kill: 1% (w/w) peptide in acrylic coating; for Gram Positive Sample 1 Log Kill / Gram Positive Sample 2 Log Kill / Gram Positive Sample 3 Log Kill / Gram Positive Average Log Kill: 2 hr contact; for Gram Positive Sample 1 Log Kill / Gram Positive Sample 2 Log Kill / Gram Positive Sample 3 Log Kill: 1×10^5 bacteria; for Gram Positive Average Log Kill: average of triplicate
Excerpt: as §1
(§2) Peptides: Peptides Chr-1, Chr-3, Chr-1 Truncated, and Chr-3 Truncated were obtained from Biosynthesis, Inc. (Lewisville, Tex.). Peptides were synthesized then purified by HPLC, Peptides arrived lyophilized, and were resuspended in sterile H2O. For minimum inhibitory concentration (MIC) testing, this suspension was added to media as described below. For surface challenges, this peptide mixture was added to a commercial acrylate coating resin system at 1% (w/w) solids based on the solids of the polymer.
(§3) Coating preparation: Films were prepared by combining 25 mg of the respective peptide with 4.95 g acrylate resin (Minwax® Polycrylic®, a water borne polyacrylate resin, 50% w/w solids) with agitation. The final solution was allowed to stir for an additional 30 min and films were cast by brush onto a pre-cleaned aluminum foil. The coatings were allowed to cure at ambient conditions for 24 hours prior to microbial testing. Average thickness of films was determined by a QuaNix 4500 (Automation) paint thickness gauge.
(§4) Surface testing: Bacteria were grown at 37° C. Log phase cells were harvested by centrifugation, counted on a hemocytometer using bright field microscopy, pelleted by centrifugation at 4000×g for 10 min, and resuspended in a 0.5% NaCl solution at a concentration of 1×10^7 cfu/mL. To prevent desiccation of the bacteria during testing, a hydration chamber was prepared. The chamber consisted of a sterile 3×3 in gauze pad placed in the bottom of a sterile 150×15 mm Petri dish. The gauze pad was saturated with 5 mL of sterile water and the test samples placed on top. A 10 μL aliquot containing, 1×10^5 bacteria was added to each test coating (280 mm^2), and then placed in a hydration chamber at room temperature. After 2 hr of incubation, the remaining bacteria were recovered by placing the coating in a tube containing 5 mL sterile LB media, followed by 30 sec of vortexing. Serial dilutions were carried out, and incubated for 18 hr at 37° C. with agitation. Following incubation, the cultures were examined for the presence of turbidity, indicating bacterial growth. Each coating was tested in triplicate. […] All bacterial challenge procedures were conducted using standard aseptic techniques in a BSL-2 hood.

[3] = tested on: Escherichia coli (ATCC 11229); assay: Surface testing (log kill) of peptide-containing acrylic coatings, Gram-negative; assay type: cell-based; conditions: for Gram Negative Sample 1 Log Kill / Gram Negative Sample 2 Log Kill / Gram Negative Sample 3 Log Kill / Gram Negative Average Log Kill: 2 hr contact; for Gram Negative Sample 1 Log Kill / Gram Negative Sample 2 Log Kill / Gram Negative Sample 3 Log Kill: 1×10^5 bacteria; for Gram Negative Average Log Kill: average of triplicate
Excerpt: as §1, §2, §3, §4

[4] = Surface energy and contact angle of peptide coatings (sessile drop); assay type: physicochemical; conditions: peptide in acrylic coating; for Critical Surface Energy: calculated from contact angle data; for Contact angle CH2OHCH2OH: ethylene glycol; for Contact angle CH2OHCH2OH / Contact angle CH2I2 / Contact angle H2O: 15 sec after application; for Contact angle CH2I2: methylene iodide; for Contact angle H2O: water
Method: Coating preparation: Films were prepared by combining 25 mg of the respective peptide with 4.95 g acrylate resin ([…]® Polycrylic®, a water borne polyacrylate resin, 50% w/w solids) with agitation. The final solution was allowed to stir for an additional 30 min and films were cast by brush onto a pre-cleaned aluminum foil. The coatings were allowed to cure at ambient conditions for 24 hours prior to microbial testing. Average thickness of films was determined by a QuaNix 4500 (Automation) paint thickness gauge. Surface Energy and Contact Angle: Surface energy and contact angle measurements were performed using a VCA 2500 video contact angle system by AST Products, Inc. Contact angle measurements using the sessile drop technique. An image was captured of the interface 15 sec after application and contact angle was measured. Due to the complex nature of coating and difficulty in ascertaining the surface segregating ability of the peptide. The surface contact angle method was used and subsequent critical surface energy calculations were based on the data obtained. In all cases the surface became more hydrophobic as indicated by the significant increase in contact angle for water. […] Upon subsequent analysis, a correlation was observed between critical surface energy and surface antimicrobial properties, especially Gram-positive, and to a much lesser extent Gram-negative.

eukaryotic cells = conditions: literature; cited from earlier work
[5] = Surface segregation of peptide, bromophenol blue staining; assay type: physicochemical; conditions: peptide in acrylic coating; for Molecules Peptide per mm^2 at surface of coating: absorbance at 600 nm
Method: as §3
Surface Segregation of Peptide: Each 280 mm^2 section of the test coating was submerged in 0.5% bromophenol blue for one minute. Coatings were then removed and washed three times with 20 mL di-H2O. Bromophenol blue was then recovered from the test samples using 0.05 M HCl in ethanol. Absorbance at 600 nm was determined using a Cary 5E UV-Vis-NIR (Varian, Walnut Creek, Calif.). Beer's Law was used to determine concentration of bromophenol blue and thus concentration of peptides at the surface of the coatings.
Bromophenol blue has been used extensively to quantify the amount of protein or peptide in a solution (Bonate, Anal Biochem 1988, 175, 300-4; Schosinsky et al., Clin Chem 1987, 33, 223-6). A test method to visualize surface peptide using bromophenol blue was adapted from these solution test methods. To determine the extent which peptides were segregated to the surface of test coatings, each coating was reacted with an aqueous solution containing 0.5% bromophenol blue. This solution provided molar excess of bromophenol blue that was able to undergo an acid-base reaction with the amines of the peptide at a 1:1 ratio. The reaction was then reversed, and the bromophenol blue recovered with […]. The absorbance of this solution at 600 nm was determined and Beer's Law was used to determine the concentration of bromophenol blue (FIG. 2). This could be directly converted into number of peptides at the surface and correlated directly to the effectiveness of each coating.

[6] = tested on: Gram-positive and Gram-negative bacteria; conditions: both Gram-positive and Gram-negative bacteria; Iijima et al. 2003; cited from earlier work
[7] = 1% (w/w) peptide in acrylic coating

Row | Substance | MIC Gram + [1] | MIC Gram − (Escherichia coli) | Surface antimicrobial activity of coating (in words), Gram-positive [2] | Gram Positive Sample 1 Log Kill [2] | Gram Positive Sample 2 Log Kill [2] | Gram Positive Sample 3 Log Kill [2] | Gram Positive Average Log Kill [2] | Gram Negative Sample 1 Log Kill [3, 7] | Gram Negative Sample 2 Log Kill [3, 7] | Gram Negative Sample 3 Log Kill [3, 7] | Gram Negative Average Log Kill [3, 7] | Critical Surface Energy [4] | Contact angle CH2OHCH2OH [4] | Contact angle CH2I2 [4] | Contact angle H2O [4] | Toxicity to eukaryotic cells (eukaryotic cells) | Molecules Peptide per mm^2 at surface of coating [5] | Antimicrobial activity concentration [6] | further results
1 | Chr-1: Full length antimicrobial peptide Chrysophsin-1 from gills of red sea bream Chrysophrys major, SEQ. ID. NO. 1 (FFWLIKGAIHAGKAIHGLIHRRRH; Chrysophrys major) | 0.00667 mg of peptide per mL of culture media | 0.000667 mg of peptide per mL of culture media | high activity | 4 | 4 | 3 | 3.6667 | 1 | 2 | 1 | 1.3333 | 131.6 dynes/cm | 60.77(±3.35) | 69.45(±4.81) | 53.05(±4.04) | varying levels of toxicity | 6.8 × 10^13 Molecules Peptide per mm^2 | low micromolar | Reduction of bacterial loads by coating ([2]; Gram-positive and Gram-negative together): at least 90%; Reduction of Gram-positive bacteria by peptide containing coating ([2]; after two hours): 99.9%; Surface antimicrobial activity of coating (in words), Gram-negative [3, 7]: high activity; Reduction of Gram-negative bacteria by peptide containing coating ([3]; after two hours): 90%
2 | Chr-3: Full length antimicrobial peptide Chrysophsin-3 from gills of red sea bream Chrysophrys major, SEQ. ID. NO. 3 (FIGLLISAGKAIHDLIRRRH; Chrysophrys major) | 0.00667 mg of peptide per mL of culture media | 0.0667 mg of peptide per mL of culture media | moderate activity | 1 | 1 | 1 | 1 | 0 | 0 | 0 | 0 | 97.22 dynes/cm | 63.02(±3.51) | 64.57(±3.52) | 43.88(±5.01) | varying levels of toxicity | 1.9 × 10^13 Molecules Peptide per mm^2 | low micromolar | Peptide at surface of coating, % of total peptide [5]: (~1%)
